Experimental data: the NIST ThermoML archive (doi:10.1021/je060411g)

Test: molar heat capacity at constant pressure
Conditions: 101.33 kPa, Liquid

CCCC(C)O (stereo not drawn) [pentan-2-ol]
Conditions | molar heat capacity at constant pressure [J/K/mol]
168.38 K | 149.64
169.15 K | 148.62
171.15 K | 148.98
171.34 K | 150.12
173.15 K | 149.17
174.31 K | 150.62
175.15 K | 149.61
177.14 K | 150.03
177.27 K | 151.24
179.14 K | 150.37
180.22 K | 151.84
181.14 K | 150.83
183.13 K | 151.22
183.15 K | 152.41
185.13 K | 151.66
186.06 K | 153.18
187.13 K | 152.22
188.97 K | 153.85
189.12 K | 152.69
191.11 K | 153.28
191.86 K | 154.61
193.1 K | 153.79
194.73 K | 155.46
195.09 K | 154.43
197.08 K | 155.04
197.6 K | 156.28
199.07 K | 155.64
200.45 K | 157.17
201.05 K | 156.37
203.04 K | 157.14
203.28 K | 158.12
205.02 K | 157.9
206.11 K | 159.16
207 K | 158.71
208.92 K | 160.23
208.98 K | 159.59
210.96 K | 160.43
211.71 K | 161.38
212.93 K | 161.43
214.5 K | 162.6
214.9 K | 162.36
216.87 K | 163.53
217.27 K | 163.98
218.83 K | 164.58
220.03 K | 165.38
220.79 K | 165.86
222.74 K | 167.19
222.77 K | 166.74
224.69 K | 168.3
225.5 K | 168.21
226.64 K | 169.58
228.21 K | 169.75
228.58 K | 170.97
230.52 K | 172.4
230.92 K | 171.38
232.46 K | 173.26
233.61 K | 173.02
234.41 K | 174.28
236.28 K | 174.82
236.37 K | 175.25
238.35 K | 176.25
238.94 K | 176.57
240.33 K | 177.32
241.59 K | 178.24
242.31 K | 178.65
244.22 K | 179.98
244.29 K | 180.19
246.27 K | 181.71
246.84 K | 181.91
248.24 K | 183.24
249.45 K | 183.85
250.22 K | 184.81
252.04 K | 185.96
252.19 K | 186.49
254.17 K | 187.53
254.62 K | 187.26
256.15 K | 189.21
257.2 K | 189.4
258.13 K | 190.9
259.75 K | 191.63
260.11 K | 192.75
262.08 K | 194.51
262.3 K | 193.87
264.06 K | 196.4
264.83 K | 196.18
266.04 K | 198.15
267.34 K | 198.56
268.01 K | 200.17
269.84 K | 201.01
269.99 K | 202.16
271.96 K | 204.25
272.33 K | 203.73
273.94 K | 206.27
274.8 K | 206.33
275.91 K | 208.32
277.26 K | 208.61
277.88 K | 210.5
279.7 K | 211.18
279.86 K | 212.62
281.83 K | 214.76
282.13 K | 213.77
283.81 K | 216.99
284.54 K | 216.55
285.79 K | 219.38
286.94 K | 219.25
287.77 K | 221.67
289.33 K | 222.07
289.75 K | 224.09
291.7 K | 224.87
291.73 K | 226.3
293.71 K | 228.63
294.06 K | 227.43
295.69 K | 231.18
296.41 K | 230.08
297.66 K | 233.65
298.75 K | 233
299.65 K | 235.81
301.07 K | 235.62
